Laboratory results published in patent publication US20240415914A1, “Water Dispersible Cannabinoid Compositions” (priority 2021, published 2024).

Experiment: Stability of cannabinoid and Vitamin E components of Beverage 1 (AB White) stored at 8° C. and 21-25° C., LCMSMS over 570 days
Type: physicochemical
Conditions: for Stability in AB White, 8° C. (content by LCMSMS): beverage stored at 8° C.; for Stability in AB White, 21-25° C. (content by LCMSMS): beverage stored at 21-25° C.
Protocol: The LCMSMS was calibrated for 0-1000 ng/ml cannabinoids with the same resin material used in the preparation of the concentrates. At each time period, 100 ml of beverage was diluted with 10 ml of methanol and injected into the LCMSMS for analysis.

C=C(C)[C@@H]1CCC(C)=C[C@H]1c1c(O)cc(CCC)cc1O [CBDV, cannabidivarin]
Stability in AB White, 8° C. (content by LCMSMS) (day 0): 0.150 µg/mL
Stability in AB White, 8° C. (content by LCMSMS) (day 1): 0.146 µg/mL
Stability in AB White, 8° C. (content by LCMSMS) (day 2): 0.147 µg/mL
Stability in AB White, 8° C. (content by LCMSMS) (day 3): 0.146 µg/mL
Stability in AB White, 8° C. (content by LCMSMS) (day 5): 0.147 µg/mL
Stability in AB White, 8° C. (content by LCMSMS) (day 8): 0.148 µg/mL
Stability in AB White, 8° C. (content by LCMSMS) (day 9): 0.146 µg/mL
Stability in AB White, 8° C. (content by LCMSMS) (day 10): 0.148 µg/mL
Stability in AB White, 8° C. (content by LCMSMS) (day 11): 0.150 µg/mL
Stability in AB White, 8° C. (content by LCMSMS) (day 12): 0.150 µg/mL
Stability in AB White, 8° C. (content by LCMSMS) (day 15): 0.150 µg/mL
Stability in AB White, 8° C. (content by LCMSMS) (day 16): 0.148 µg/mL
Stability in AB White, 8° C. (content by LCMSMS) (day 17): 0.146 µg/mL
Stability in AB White, 8° C. (content by LCMSMS) (day 18): 0.146 µg/mL
Stability in AB White, 8° C. (content by LCMSMS) (day 19): 0.149 µg/mL
Stability in AB White, 8° C. (content by LCMSMS) (day 22): 0.149 µg/mL
Stability in AB White, 8° C. (content by LCMSMS) (day 23): 0.149 µg/mL
Stability in AB White, 8° C. (content by LCMSMS) (day 24): 0.147 µg/mL
Stability in AB White, 8° C. (content by LCMSMS) (day 25): 0.149 µg/mL
Stability in AB White, 8° C. (content by LCMSMS) (day 26): 0.152 µg/mL
Stability in AB White, 8° C. (content by LCMSMS) (day 29): 0.151 µg/mL
Stability in AB White, 8° C. (content by LCMSMS) (day 30): 0.148 µg/mL
Stability in AB White, 8° C. (content by LCMSMS) (day 60): 0.143 µg/mL
Stability in AB White, 8° C. (content by LCMSMS) (day 90): 0.146 µg/mL
Stability in AB White, 8° C. (content by LCMSMS) (day 120): 0.144 µg/mL
Stability in AB White, 8° C. (content by LCMSMS) (day 150): 0.150 µg/mL
Stability in AB White, 8° C. (content by LCMSMS) (day 180): 0.150 µg/mL
Stability in AB White, 8° C. (content by LCMSMS) (day 210): 0.147 µg/mL
Stability in AB White, 8° C. (content by LCMSMS) (day 240): 0.145 µg/mL
Stability in AB White, 8° C. (content by LCMSMS) (day 270): 0.143 µg/mL
Stability in AB White, 8° C. (content by LCMSMS) (day 300): 0.143 µg/mL
Stability in AB White, 8° C. (content by LCMSMS) (day 330): 0.146 µg/mL
Stability in AB White, 8° C. (content by LCMSMS) (day 360): 0.145 µg/mL
Stability in AB White, 8° C. (content by LCMSMS) (day 390): 0.143 µg/mL
Stability in AB White, 8° C. (content by LCMSMS) (day 420): 0.144 µg/mL
Stability in AB White, 8° C. (content by LCMSMS) (day 450): 0.145 µg/mL
Stability in AB White, 8° C. (content by LCMSMS) (day 480): 0.143 µg/mL
Stability in AB White, 8° C. (content by LCMSMS) (day 510): 0.138 µg/mL
Stability in AB White, 8° C. (content by LCMSMS) (day 540): 0.139 µg/mL
Stability in AB White, 8° C. (content by LCMSMS) (day 570): 0.138 µg/mL
Stability in AB White, 21-25° C. (content by LCMSMS) (day 0): 0.150 µg/mL
Stability in AB White, 21-25° C. (content by LCMSMS) (day 1): 0.149 µg/mL
Stability in AB White, 21-25° C. (content by LCMSMS) (day 2): 0.148 µg/mL
Stability in AB White, 21-25° C. (content by LCMSMS) (day 3): 0.149 µg/mL
Stability in AB White, 21-25° C. (content by LCMSMS) (day 5): 0.144 µg/mL
Stability in AB White, 21-25° C. (content by LCMSMS) (day 8): 0.145 µg/mL
Stability in AB White, 21-25° C. (content by LCMSMS) (day 9): 0.148 µg/mL
Stability in AB White, 21-25° C. (content by LCMSMS) (day 10): 0.147 µg/mL
Stability in AB White, 21-25° C. (content by LCMSMS) (day 11): 0.150 µg/mL
Stability in AB White, 21-25° C. (content by LCMSMS) (day 12): 0.152 µg/mL
Stability in AB White, 21-25° C. (content by LCMSMS) (day 15): 0.151 µg/mL
Stability in AB White, 21-25° C. (content by LCMSMS) (day 16): 0.145 µg/mL
Stability in AB White, 21-25° C. (content by LCMSMS) (day 17): 0.150 µg/mL
Stability in AB White, 21-25° C. (content by LCMSMS) (day 18): 0.151 µg/mL
Stability in AB White, 21-25° C. (content by LCMSMS) (day 19): 0.148 µg/mL
Stability in AB White, 21-25° C. (content by LCMSMS) (day 22): 0.148 µg/mL
Stability in AB White, 21-25° C. (content by LCMSMS) (day 23): 0.148 µg/mL
Stability in AB White, 21-25° C. (content by LCMSMS) (day 24): 0.145 µg/mL
Stability in AB White, 21-25° C. (content by LCMSMS) (day 25): 0.145 µg/mL
Stability in AB White, 21-25° C. (content by LCMSMS) (day 26): 0.149 µg/mL
Stability in AB White, 21-25° C. (content by LCMSMS) (day 29): 0.147 µg/mL
Stability in AB White, 21-25° C. (content by LCMSMS) (day 30): 0.151 µg/mL
Stability in AB White, 21-25° C. (content by LCMSMS) (day 60): 0.149 µg/mL
Stability in AB White, 21-25° C. (content by LCMSMS) (day 90): 0.143 µg/mL
Stability in AB White, 21-25° C. (content by LCMSMS) (day 120): 0.141 µg/mL
Stability in AB White, 21-25° C. (content by LCMSMS) (day 150): 0.146 µg/mL
Stability in AB White, 21-25° C. (content by LCMSMS) (day 180): 0.141 µg/mL
Stability in AB White, 21-25° C. (content by LCMSMS) (day 210): 0.142 µg/mL
Stability in AB White, 21-25° C. (content by LCMSMS) (day 240): 0.145 µg/mL
Stability in AB White, 21-25° C. (content by LCMSMS) (day 270): 0.148 µg/mL
Stability in AB White, 21-25° C. (content by LCMSMS) (day 300): 0.142 µg/mL
Stability in AB White, 21-25° C. (content by LCMSMS) (day 330): 0.144 µg/mL
Stability in AB White, 21-25° C. (content by LCMSMS) (day 360): 0.146 µg/mL
Stability in AB White, 21-25° C. (content by LCMSMS) (day 390): 0.146 µg/mL
Stability in AB White, 21-25° C. (content by LCMSMS) (day 420): 0.143 µg/mL
Stability in AB White, 21-25° C. (content by LCMSMS) (day 450): 0.144 µg/mL
Stability in AB White, 21-25° C. (content by LCMSMS) (day 480): 0.143 µg/mL
Stability in AB White, 21-25° C. (content by LCMSMS) (day 510): 0.139 µg/mL
Stability in AB White, 21-25° C. (content by LCMSMS) (day 540): 0.140 µg/mL
Stability in AB White, 21-25° C. (content by LCMSMS) (day 570): 0.138 µg/mL
